How the values were obtained:
Caspase-8 = target: T1, Caspase-8 (Homo sapiens, UniProt Q14790); test: Caspase inhibitory effect, fluorescent substrate AcDEVD-AFC; format: biochemical; conditions: pH 7.5; 2.1 nM caspase-8, 50 μM AcDEVD-AFC, 25° C., pH 7.50; read-out: Caspase-8 Kobs/[I] (converted)
T1 construct: p10 and p20 subunits (Thornberry, N. A. et al, Nature, 1992, 356, 768) were expressed in E. coli; made in house; host or cells: E. coli
Protocol: Caspase-1 and caspase-8 known as cysteine proteases in the form of α2β2 were expressed, purified, and activated by modifying a method known in Thornberry, N. A. et al, Nature, 1992, 356, 768. Thornberry, N. A. Methods in Enzymology, 1994, 244, 615. Walker, N. P. C. et al. Cell, 1994, 78, 343, and caspase-9 was also purified by a similar method, and the inhibitory activity against them was tested. Briefly describing, p10 and p20 subunits (Thornberry, N. A. et al, Nature, 1992, 356, 768) were expressed in E. coli and purified by nickel column and anionic exchange chromatography to give caspase-1, caspase-8 and caspase-9. The fluorescent substrates AcYVAD-AFC for thus obtained caspase-1, AcDEVD-AFC for caspase-8, and AcLEHD-AFC for caspase-9, were used for determining specific activity of the synthesized inhibitors. The enzyme reaction was carried out at 25° C. with various concentrations of the inhibitors in a buffer solution containing 50 mM HEPES(pH 7.50), 10% (w/v) sucrose, 0.1% (w/v) CHAPS, 100 mM NaCl, 1 mM EDTA, and 10 mM DTT in the presence of 50 μM AcYVAD-AFC for 10 nM caspase-1, 50 μM AcDEVD-AFC for 2.1 nM caspase-8, and 150 μM AcLEHD-AFC for 200 nM caspase-9. The inhibitory constants Ki and Kobs of the inhibitors were determined by measuring the reaction velocity with the time lapse using a fluorescent spectrometer and by obtaining the initial rate constant. Ki was calculated from the Lineweaver Burk Plot, and Kobs from the following Equation 1. Kobs=−ln(1−At/Aoo)/t [Equation 1]
At means cleavage rate (%) at time t, and
Aoo means the maximum cleavage rate (%).
Spectra MAX GeminiXS Fluorescent Spectrometer of Molecular Device Co. was used at the excitation wavelength of 405 nm and the emission wavelength of 505 nm.

[1] = tested on: Jurkat cell (ATCC TIB-152); test: Jurkat cell apoptosis induced by Fas antibody, WST-1 method; format: cell-based; conditions: Homo sapiens, amount of alive cells by WST-1
Protocol: The […] inhibitory activity of the inhibitors was determined by subjecting Jurkat cell (ATCC TIB-152) to apoptosis using Fas antibody (Upstate Biotech 05-201) and by detecting the color change according to the WST-1 method known in Francoeur A. M. and Assalian A. (1996) Biochemica 3, 19-25 to observe the amount of alive Jurkat cells when the cells were treated by the inhibitor. Spectra MAX 340 Spectrometer of Molecular Device Co. was used at the absorbance wavelength of 440 nm.

T1 sequence (Q14790 217-374 limits assumed, species assumed): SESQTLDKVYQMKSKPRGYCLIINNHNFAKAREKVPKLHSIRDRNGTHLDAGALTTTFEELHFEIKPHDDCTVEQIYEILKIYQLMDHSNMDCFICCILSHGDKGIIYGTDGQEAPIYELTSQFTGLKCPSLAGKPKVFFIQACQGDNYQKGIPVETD
T1 sequence (Q14790 385-479 limits assumed, species assumed): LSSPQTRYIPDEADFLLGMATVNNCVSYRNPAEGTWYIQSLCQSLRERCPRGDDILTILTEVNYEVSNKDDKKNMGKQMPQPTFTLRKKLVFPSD

SMILES | kinact/KI (Caspase-8) [M⁻¹ s⁻¹] | IC50 [1] [nM]
CCC(C(=O)NC(CC(=O)O)C(=O)CF)c1c(C)cnn(Cc2ccccc2)c1=O (stereo not drawn) [Example 2, 3-[2-(2-Benzyl-5-methyl-3-oxo-2,3-dihydro-pyridazin-4-yl)-butyrylamino]-5-f luoro-4-oxo-pentanoic acid] | 7330 | 1480
CCC(C(=O)NC(CC(=O)O)C(=O)CF)c1ccnn(Cc2cccc(OC)c2)c1=O (stereo not drawn) [Example 10, 5-Fluoro-3-2-[2-(3-methoxy-benzyl)-3-oxo-2,3-dihydro-pyridazin-4-yl]-butyr ylamino-4-oxo-pentanoic acid] | 20000 | 550
CCC(C(=O)N[C@@H](CC(=O)O)C(=O)COP(=O)(c1ccccc1)c1ccccc1)c1ccnn(Cc2ccccc2C(C)(C)C)c1=O (stereo partly drawn) [Example 28, (S)-3-{2-[2-(2-tert-Butyl-benzyl)-3-oxo-2,3-dihydro-pyridazin-4-yl]-butyrylamino}-5-(diphenyl-phosphinoyloxy)-4-oxo-pentanoic acid] | 56700 | 365
CCC(C(=O)NC(CC(=O)O)C(=O)CF)c1c(C)cnn(-c2ccccc2)c1=O (stereo not drawn) [Example 1, 5-Fluoro-3-[2-(5-methyl-3-oxo-2-phenyl-2,3-dihydro-pyridazin-4-yl)-butyrylamino]-4-oxo-pentanoic acid] | 967 | 8000
CCC(C(=O)NC(CC(=O)O)C(=O)CF)c1ccnn(Cc2ccccc2C(C)(C)C)c1=O (stereo not drawn) [Example 6, 3-2-[2-(2-tert-Butyl-benzyl)-3-oxo-2,3-dihydro-pyridazin-4-yl]-butyrylamino-5-fluoro-4-oxo-pentanoic acid] | 63300 | 42
CCC(C(=O)NC(CC(=O)O)C(=O)CF)c1ccnn(Cc2ccccc2C)c1=O (stereo not drawn) [Example 8, 5-Fluoro-3-2-[2-(2-methyl-benzyl)-3-oxo-2,3-dihydro-pyridazin-4-yl]-butyryl amino-4-oxo-pentanoic acid] | 20000 | 820
CCC(C(=O)NC(CC(=O)O)C(=O)CF)c1ccnn(CC2CCCCC2)c1=O (stereo not drawn) [Example 16, 3-[2-(2-Cyclohexylmethyl-3-oxo-2,3-dihydro-pyridazin-4-yl)-butyrylamino]-5-fluoro-4-oxo-pentanoic acid] | 12300 | 90
CCC(C(=O)NC(CC(=O)O)C(=O)CF)c1ccnn(Cc2c(C)noc2C)c1=O (stereo not drawn) [Example 15, 3-2-[2-(3,5-Dimethyl-isoxazol-4-ylmethyl)-3-oxo-2,3-dihydro-pyridazin-4-yl]-butyrylamino-5-fluoro-4-oxo-pentanoic acid] | 12000 | 800
CCC(C(=O)NC(CC(=O)O)C(=O)CF)c1ccnn(Cc2cccc(C(C)(C)C)c2)c1=O (stereo not drawn) [Example 7, 3-2-[2-(3-tert-Butyl-benzyl)-3-oxo-2,3-dihydro-pyridazin-4-yl]-butyrylamino-5-fluoro-4-oxo-pentanoic acid] | 23300 | 35
CCC(C(=O)NC(CC(=O)O)C(=O)CF)c1ccnn(Cc2cccc3ccccc23)c1=O (stereo not drawn) [Example 11, 5-Fluoro-3-[2-(2-naphthalen-1-ylmethyl-3-oxo-2,3-dihydro-pyridazin-4-yl)-butyrylamino]-4-oxo-pentanoic acid] | 56700 | 170
CCC(C(=O)NC(CC(=O)O)C(=O)CF)c1ccnn(Cc2cccc(C(F)(F)F)c2)c1=O (stereo not drawn) [Example 22, 5-Fluoro-4-oxo-3-{2-[3-oxo-2-(3-trifluoromethyl-benzyl)-2,3-dihydro-pyridazin-4-yl]-butyrylamino}-pentanoic acid] | 14300 | 216
CCC(C(=O)NC(CC(=O)O)C(=O)CF)c1ccnn(Cc2ccccc2C(F)(F)F)c1=O (stereo not drawn) [Example 21, 5-Fluoro-4-oxo-3-{2-[3-oxo-2-(2-trifluoromethyl-benzyl)-2,3-dihydro-pyridazin-4-yl]-butyrylamino}-pentanoic acid] | 66700 | 43
CCC(C(=O)NC(CC(=O)O)C(=O)CF)c1ccnn(Cc2cccc(Cl)c2)c1=O (stereo not drawn) [Example 19, 3-{2-[2-(3-Chloro-benzyl)-3-oxo-2,3-dihydro-pyridazin-4-yl]-butyrylamino}-5-fluoro-4-oxo-pentanoic acid] | 28300 | 35
CCC(C(=O)NC(CC(=O)O)C(=O)CF)c1ccnn(Cc2ccc3ccccc3c2)c1=O (stereo not drawn) [Example 12, 5-Fluoro-3-[2-(2-naphthalen-2-ylmethyl-3-oxo-2,3-dihydro-pyridazin-4-yl)-butyrylamino]-4-oxo-pentanoic acid] | 15500 | 290
CCC(C(=O)NC(CC(=O)O)C(=O)CF)c1c(Cl)cnn(Cc2ccccc2)c1=O (stereo not drawn) [Example 4, 3-[2-(2-Benzyl-5-chloro-3-oxo-2,3-dihydro-pyridazin-4-yl)-butyrylamino]-5-fl uoro-4-oxo-pentanoic acid] | 6830 | 390
CCC(C(=O)NC(CC(=O)O)C(=O)CF)c1ccnn(Cc2nccc3ccccc23)c1=O (stereo not drawn) [Example 17, 5-Fluoro-3-[2-(2-isoquinolin-1-ylmethyl-3-oxo-2,3-dihydro-pyridazin-4-yl)-butyrylamino]-4-oxo-pentanoic acid] | 25000 | 130
CCC(C(=O)NC(CC(=O)O)C(=O)CF)c1ccnn(Cc2coc(C)n2)c1=O (stereo not drawn) [Example 13, 5-Fluoro-3-2-[2-(2-methyl-oxazol-4-ylmethyl)-3-oxo-2,3-dihydro-pyridazin-4-yl]-butyrylamino-4-oxo-pentanoic acid] | 11500 | 3760

Other lines, results leading:

kinact/KI (Caspase-8) [M⁻¹ s⁻¹] | IC50 [1] [nM] | SMILES
933 | 2480 | CC[C@H](C(=O)N[C@@H](CC(=O)O)C(=O)COC(=O)c1c(Cl)cccc1Cl)c1ccnn(Cc2ccccc2C(C)(C)C)c1=O (single isomer, unassigned) [Example 23-2]
7830 | – | CC[C@H](C(=O)N[C@@H](CC(=O)O)C(=O)COc1c(F)ccc(F)c1F)c1ccnn(Cc2ccccc2C(C)(C)C)c1=O [Example 26-2, (S)-3-{(S)-2-[2-(2-tert-Butyl-benzyl)-3-oxo-2,3-dihydro-pyridazin-4-yl]-butyrylamino}-4-oxo-5-(2,3,6-trifluoro-phenoxy)-pentanoic acid]
20000 | 140 | CC[C@@H](C(=O)N[C@@H](CC(=O)O)C(=O)COC(=O)c1c(Cl)cccc1Cl)c1ccnn(Cc2ccccc2C(C)(C)C)c1=O (single isomer, unassigned) [Example 23-1]
63300 | 12 | CC[C@@H](C(=O)N[C@@H](CC(=O)O)C(=O)COc1c(F)c(F)cc(F)c1F)c1ccnn(Cc2ccccc2C(C)(C)C)c1=O [Example 24-1, (S)-3-{(R)-2-[2-(2-tert-Butyl-benzyl)-3-oxo-2,3-dihydro-pyridazin-4-yl]-butyrylamino}-4-oxo-5-(2,3,5,6-tetrafluoro-phenoxy)-pentanoic acid]
26700 | 31 | CC[C@@H](C(=O)N[C@@H](CC(=O)O)C(=O)COc1c(F)c(F)cc(F)c1F)c1ccnn(Cc2cccc(C(C)(C)C)c2)c1=O [Example 25-1, (S)-3-{(R)-2-[2-(3-tert-Butyl-benzyl)-3-oxo-2,3-dihydro-pyridazin-4-yl]-butyrylamino}-4-oxo-5-(2,3,5,6-tetrafluoro-phenoxy)-pentanoic acid]
28300 | 45 | CC[C@@H](C(=O)N[C@@H](CC(=O)O)C(=O)COc1c(F)ccc(F)c1F)c1ccnn(Cc2ccccc2C(C)(C)C)c1=O [Example 26-1, (S)-3-{(R)-2-[2-(2-tert-Butyl-benzyl)-3-oxo-2,3-dihydro-pyridazin-4-yl]-butyrylamino}-4-oxo-5-(2,3,6-trifluoro-phenoxy)-pentanoic acid]
11700 | 90 | CC[C@@H](C(=O)N[C@@H](CC(=O)O)C(=O)COc1c(F)cccc1F)c1ccnn(Cc2ccccc2C(C)(C)C)c1=O [Example 27-1, (S)-3-{(R)-2-[2-(2-tert-Butyl-benzyl)-3-oxo-2,3-dihydro-pyridazin-4-yl]-butyrylamino}-5-(2,6-difluoro-phenoxy)-4-oxo-pentanoic acid]
3170 | – | CC[C@H](C(=O)N[C@@H](CC(=O)O)C(=O)COc1c(F)cccc1F)c1ccnn(Cc2ccccc2C(C)(C)C)c1=O [Example 27-2, (S)-3-{(S)-2-[2-(2-tert-Butyl-benzyl)-3-oxo-2,3-dihydro-pyridazin-4-yl]-butyrylamino}-5-(2,6-difluoro-phenoxy)-4-oxo-pentanoic acid]

Reference: patent US8481537B2, “Caspase inhibitors based of pyridazinone scaffold” (LG Life Sciences Ltd., priority 2006, dated 2013)
